Entries after “also recorded” stand apart in the source; their conditions may differ.
Key:
cathepsin B = experiment: Western immunoblotting, cathepsin B; assay type: in vivo, rat; settings: aged rats; oral 8-AG 5 mg/kg/day, 6 weeks
Protocol: Western immunoblotting: Following the testing paradigms, rats were deeply anesthetized, bladders as well as the proximal urethra were removed, and one half of each preparation was homogenized using Lysing Matrix D in a FastPrep 24 instrument (MP Biomedicals, Solon, Ohio) in HBSS [5 mM KCl, 0.3 mM KH2PO4, 138 mM NaCl, 4 mM NaHO3, 0.3 mM Na2HCO3, 0.3 mM Na2HPO4, 5.6 mM glucose, and 10 mM Hepes, pH 7.4 containing a complete protease inhibitor cocktail (1 tablet/10 ml, ROCHE®, Indianapolis, Ind.) and a phosphatase inhibitor cocktail (SIGMA®, 1:100)]. After centrifugation (13000 rpm; 15 min at 4° C.), the membrane protein fraction was prepared by suspending the membrane pellets in lysis buffer containing 0.3 M NaCl, 50 mM Tris-HCl (pH 7.6), and 0.5% Triton X-100 and the same concentration of protease inhibitors as above. The suspensions were incubated on ice and centrifuged (13000 rpm; 15 min at 4° C.). The protein concentrations of the combined supernatants were determined using the PIERCE® BCA protein assay (THERMO SCIENTIFIC®, Rockford, Ill.). […] As a loading control, total protein per sample was determined using Bio-Rad Stain Free SDS-PAGE gel technology. UV-activated protein fluorescence was imaged on a CHEMIDOC® MP (BIO-RAD®). […] The volume (intensity) of each protein species was determined and normalized to total protein using Image Lab software (BIO-RAD®). […]

[1] = test system: dynamin-related protein (DRP-1); experiment: Western immunoblotting, DRP-1; assay type: in vivo, rat; settings: aged rats; oral 8-AG 5 mg/kg/day, 6 weeks
Protocol: Western immunoblotting: One half of each bladder preparation was homogenized using Lysing Matrix D in a FastPrep 24 instrument (MP Biomedicals, Solon, Ohio) in HBSS (5 mM KCl, 0.3 mM KH2PO4, 138 mM NaCl, 4 mM NaHO3, 0.3 mM Na2HCO3, 0.3 mM Na2HPO4, 5.6 mM glucose and 10 mM Hepes, pH 7.4) containing complete protease inhibitor cocktail (1 tablet/10 ml, ROCHE®, Indianapolis, Ind.)) and phosphatase inhibitor cocktail (SIGMA®, 1:100). After centrifugation (13000 rpm; 15 min at 4° C.), the membrane protein fraction was prepared by suspending the membrane pellets in lysis buffer containing 0.3 M NaCl, 50 mM Tris-HCl (pH 7.6) and 0.5% Triton X-100 and the same concentration of protease inhibitors as above. The suspensions were incubated on ice and centrifuged (13000 rpm; 15 min at 4° C.). The protein concentrations of the combined supernatants were determined using the PIERCE® BCA protein assay (THERMO SCIENTIFIC®, Rockford, Ill.). […] As a loading control, total protein per sample was determined using Bio-Rad® Stain Free SDS-PAGE gel technology. UV-activated protein fluorescence was imaged on a CHEMIDOC® MP (BIO-RAD®). […] The volume (intensity) of each protein species was determined and normalized to total protein using Image Lab software (BIO-RAD®).

## Nc1nc2[nH]c(N)nc2c(=O)[nH]1 [8-AG, 8-Aminoguanine]
Cathepsin B
  cathepsin B expression in urethra: trend toward reversal
[1]
  DRP-1 in bladder mucosa: reversed or restored to levels similar to the younger state; also recorded: restored changes similar to a younger state

Reference: patent publication US20220054494A1, “METHODS FOR TREATING BLADDER AND URETHRA DYSFUNCTION AND DISEASE” (University of Pittsburgh - Of the Commonwealth System of …, priority 2019, published 2022)
